From patent EP4201411A1, “NOVEL USE OF VITAMIN B12” (DSM IP Assets B.V., priority 2021, dated 2023)

Assays:
Format in all cases: cell-based, human
ASC protein = test: ASC immunostaining of sections of UV-B irradiated skin explants (ex vivo); conditions: for ASC complex, % / ASC complex, mean_int (int/area) / ASC complex, Mean intensity / condition: skin explant sections, UVB 200mJ/cm2; for ASC complex, %: NTNS = 100.00, NTUV = 138.17; for ASC complex, mean_int (int/area) / ASC complex, Mean intensity / condition: n =38; for ASC complex, Mean intensity / condition: NTUV = 660.03, NTNS = 477.70
Protocol: (§1) To further define the benefits of vitamin B12 in the skin, we included analysis of the compound in response to a stressor that induces inflammasome-medicated inflammation. Stress model options include UV exposure, confirming the effects on more complex skin tissues (ex vivo model). Firstly, the cytotoxicity of the active ingredient was evaluated. Then, the capacity of the active ingredient was measured to regulate inflammasome activation. […] Using immunohistochemistry, the effect of the active ingredient on the level of ASC protein (inflammasome marker) was studied. Finally, the expression level of miRNA hsa-miR-22-3p was quantified from RT-qPCR.
(§2) Ex vivo culture model and treatment: Fresh skin explants were obtained from abdominal surgery of a person. The culture medium dedicated to skin explants was used and renewed every day during each treatment. The skin biopsies were cultured in different conditions and each condition was performed in triplicates and processed separately. The active ingredient treatment was applied before and after the UV-B stress, but not during the UV stress. An UV-B irradiation of […] for 2 minutes was applied identically onto each irradiated skin explant. Prior to the irradiation, the culture medium was removed and replace by PBS +/+ for the duration of the stress.
(§3) Samples: • 1.Control Explant (No treatment, no irradiation) (NT_NS) • 2. Explant + UVB (NT_UV) • 3. Explant + UVB + vitamin B12 (0.01%) • 4. Explant + UVB + vitamin B12 (0.001%) Total no. of samples = 4 x 3 = 12 samples
To evaluate the onset of apoptotic signaling, the fluorescence intensity of ASC was measured. After UV exposure, the explants were replaced in a fresh culture medium. At the end of the treatments the explants were frozen and then cut into thin sections. Following this, immunohistochemistry was performed by adding primary monoclonal Antibody ASC/TMS1/PYCARD (clone B-3) (SantaCruz #sc-514414) and secondary antibody anti-mouse coupled to Cy5 (Jackson Laboratory). After Hoechst 33342 staining, the fluorescence intensity was measured using a Zeiss fluorescence microscope (Axio imager Z1).
Table 4: Quantification of ASC complex immunolabelled in skin explant sections with or without UV-B stress and after vitamin B12 treatment at 0,01% or 0,001% and irradiated or not with UVB at 200mJ/cm2. The statistical analysis was performed using two-tailed unpaired T-test vs NT_UV (+ p-value <0.05, ++ p-value<0.01, +++ p-value<0.001).

skin explants = test: LDH cytotoxicity assay on UV-B irradiated skin explants (ex vivo); conditions: for Cytotoxicity [OD 450 nm] Mean/conditions: LDH production, skin explants irradiated with 200 mJ/cm2 UVB
Protocol: as §1, §2, §3
Cytotoxicity method: Lactate dehydrogenase assay kit (LDH) was purchased from Roche and used according to manufacturer's protocol.
Table 1: Effect of vitamin B12 on LDH production by skin explants at 2 concentrations (0,01% and 0,001%) and of the positive control Triton at 0.1% after irradiation with 200 mJ/cm2 UVB. The statistical analysis was performed using two-tailed unpaired T-test and was not significant (p<0.05) for the vitamin B12 treatment vs irradiated control (NT_UV).

miR-22-3p = miR-22-3p quantification by RT-qPCR in UV-B irradiated skin explants (ex vivo); conditions: for miR-22-3p QR mean: skin explants, UV-B 200 mJ/cm2, normalized using U6 RNA, NT_UV = 1.067; for expression level of miR-22-3p (in words): skin explants after UV-B stress, vs NT_UV
Protocol: as §1, §2, §3
The miRNAs were extracted and purified using miRCURY RNA Isolation Kit. The quality control and miRNA quantification were performed using Agilent RNA Small kit and Analysis Agilent 2100 bioanalyzer. For miR qPCR, the RNA was reverse transcribed with a miRCURY LNA RT kit (339340, Qiagen). The reverse transcription reactions were diluted, and a fraction of diluted cDNA was used for each quantitative PCR, which was performed with a miRCURY LNA SYBR Green PCR kit (339346, Qiagen) using the CFX-connect (Biorad). The results were normalized to U6 expression. The reference and expression level of miRNA were calculated using 2ΔΔCt method.
Table 2: Effect of vitamin B12 on miR expression in skin explants after UV-B stress. The explants were treated with vitamin B12 at two concentrations (0,01% and 0,001%) and irradiated with UV-B at 200 mJ/cm2. The miR expression was normalized using U6 RNA. Two-tailed unpaired t-test was used for statistical analysis (using values from 3 replicates) vs NT_UV (*p-value <0.05).

Interleukin-1β = test: IL-1β competitive ELISA on culture supernatants of UV-B irradiated skin explants (ex vivo); conditions: vitamin B12 0,01%
Protocol: as §1, §2, §3
The secretion of Interleukin-1β in response to activation of the stress-induced inflammatory signaling pathway was evaluated using a competitive ELISA assay. 24 hours after exposure to UV-B irradiation, culture supernatants of explants were recovered. The samples were then treated according to the manufacturer's instructions using the IL-1β (RAB0273, Sigma Aldrich). The Interleukin production by explants was measured at 450 nm using ENSIGHT.
IL-1β secretion results: UV-B increased the production of IL-1β compared to the untreated control. […]

cyanocobalamin [vitamin B12]
ASC complex, % (ASC protein; vitamin B12 0,01%): 103.22% | ASC complex, mean_int (int/area) (ASC protein; vitamin B12 0,01%): 491.31 int/area | ASC complex, Mean intensity / condition (ASC protein; vitamin B12 0,01%): 493.07 | ASC protein (in words) (ASC protein; vitamin B12 0.001 % and 0.01 % topically on UV-irradiated skin explants): significantly reduced the ASC protein in a dose-dependent manner | ASC complex activation (in words) (ASC protein; vitamin B12 0.001%, after UV-B treatment): significantly reduces the ASC complex activation | ASC complex activation (in words) (ASC protein; vitamin B12 0.01%, compared to the UV-B stressed sample): significantly reduce the ASC complex activation to the level of the none irradiated extract | ASC complex, % (ASC protein; vitamin B12 0,001%): 118.48% | ASC complex, mean_int (int/area) (ASC protein; vitamin B12 0,001%): 524.44 int/area | ASC complex, Mean intensity / condition (ASC protein; vitamin B12 0,001%): 565.99 | Cytotoxicity [OD 450 nm] Mean/conditions (skin explants; vitamin B12 0,01%): 0.131 OD 450 nm | Cytotoxicity [OD 450 nm] Mean/conditions (skin explants; vitamin B12 0,001%): 0.163 OD 450 nm | cytotoxicity (in words) (skin explants; vitamin B12 0,01% and 0,001%, skin explants after UVB, compared to biopsies treated with Triton 0.1%): did not exert cytotoxicity | miR-22-3p QR mean (miR-22-3p; vitamin B12 0,01%): 1.721 | expression level of miR-22-3p (in words) (miR-22-3p; vitamin B12 0.01%): significantly increased | expression level of miR-22-3p (in words) (miR-22-3p; vitamin B12 0,001%): tends to increase miR-22-3p expression, but this activation is not statistically significant | miR-22-3p QR mean (miR-22-3p; vitamin B12 0,001%): 1.334 | IL-1β secretion (in words) (Interleukin-1β; skin explants after UV-B stress): seems to decrease | IL-1β secretion, Relative Intensity (Interleukin-1β; skin explants after UV-B, NT_NS = 100, NT_UV = 157): 137 | IL-1β secretion, Mean Intensity (Interleukin-1β; skin explants, 24 hours after UV-B, NT_UV = 4.914, NT_NS = 3.122): 4.2644
